# How the values were obtained:
# [1] = target: T1, HDAC8 (Homo sapiens, UniProt Q9BY41); assay: HDAC8 inhibitory activity analysis (in vitro), RFU analysis, HDAC Fluorogenic assay kit; assay type: biochemical; settings: for RFU (%): compound final concentration 10 µM, HDAC substrate 2A 20 µM, positive control (1% DMSO) set to 100, lower = more inhibition; for inhibitory activity against HDAC8: result in words, summary of Table 2, 10 µM
# T1 construct: purchased BPS bioscience
# T1 sequence (Q9BY41 1-377): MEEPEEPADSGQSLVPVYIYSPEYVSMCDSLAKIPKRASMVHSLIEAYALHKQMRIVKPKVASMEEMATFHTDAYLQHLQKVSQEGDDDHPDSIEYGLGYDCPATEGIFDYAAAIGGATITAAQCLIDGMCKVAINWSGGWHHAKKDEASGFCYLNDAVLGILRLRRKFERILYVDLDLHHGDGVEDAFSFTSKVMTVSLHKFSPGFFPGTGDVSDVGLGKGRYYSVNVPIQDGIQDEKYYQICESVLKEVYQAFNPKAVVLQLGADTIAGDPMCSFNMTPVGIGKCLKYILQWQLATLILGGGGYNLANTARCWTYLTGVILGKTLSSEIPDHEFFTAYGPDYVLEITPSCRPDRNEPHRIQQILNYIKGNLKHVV
# Description: The compound of the Example was diluted to 1 mM (1% DMSO concentration) using DMSO to obtain a final concentration of 10 µM, and prepared by diluting 1/10 with assay buffer. In a 96-well black round-bottom plate, 5 µL of the diluted compound of the Example, 5 µL of the diluted HDAC substrate 2A, 5 µL of BSA (1 mg/mL), 5 µL of the HDAC8 enzyme diluted to an appropriate concentration, and 30 µL of assay buffer were added, and the enzyme reaction was performed at 37°C for 30 minutes. […] Afterwards, 50 µL of 2X HDAC developer was added to each well. After reacting for 15 minutes at room temperature, the fluorescence values at excitation wavelengths of 350-380 nm and emission wavelengths of 440-460 nm were measured using a microplate reader (Synergy Neo).
# [2] = tested on: PC-3 prostate cancer cells; assay: Prostate cancer cell growth inhibition, CCK-8 assay; assay type: cell-based, human; settings: PC-3 cells, FIG. 1, result in words
# Description: PC-3, a human-derived prostate cancer cell line, was cultured with RPMI1640 (10% fetal bovine serum, 1% Penicillin Streptomycin) culture medium at 37°C, 5% CO2 condition. All cells in the experiment were subcultured when they reached a confluency of approximately 80% to 90%, and only cells that had not passed 20 passages were used.
# After culturing, 10 µL CCK-8 reagent was added and the absorbance was measured after 1 hour. The absorbance was measured at 450 nm using a microplate reader [BMG Labtech (Offenburg, Germany)].
# [3] = tested on: Liver cancer cells Huh-7; assay: Liver cancer cell growth inhibition, CellTiter-Glo Luminescent Cell Viability Assay; assay type: cell-based; settings: Huh-7 cells, various concentrations, day 1, FIG. 6; result in words
# Description: In addition, an analysis of liver cancer growth inhibitory activity was performed. Liver cancer cells Huh-7 cells were dispensed in a 96-well plate at 1 × 10^4 cells/ml, and after 20 hours, PCI34051, Example 27, and Example 35 were added at various concentrations, and cultured for 24 and 48 hours at 37°C in a 5% CO2 atmosphere. After culturing, 100 µl CellTiter-Glo Luminescent Cell Viability Assay reagent was added and the luminescence signal was measured after 0.5-1 hour. The luminescence signal was measured using IVIS [PerkinElmer, (Waltham, USA)].
RFU (%) [1] [%],Structure (SMILES),inhibitory activity against HDAC8 [1],other results
85.71,"Cc1cc2nc(C(=O)NCc3ccc(F)cc3)c(=O)n(C[C@H](O)[C@H](O)[C@H](O)CO)c2cc1C [Example 4, N-(4-fluorobenzyl)-6,7-dimethyl-3-oxo-4-((2S,3S,4R)-2,3,4,5-tetrahydroxypentyl)-3,4-dihydroquinoxaline-2-carboxamide]",,
54.79,"Cc1cc2nc(C(=O)NCc3cc(Cl)cc(Cl)c3)c(=O)n(C[C@H](O)[C@H](O)[C@H](O)CO)c2cc1C [Example 7, N-(3,5-dichlorobenzyl)-6,7-dimethyl-3-oxo-4-((2S,3S,4R)-2,3,4,5-tetrahydroxypentyl)-3,4-dihydroquinoxaline-2-carboxamide]",,
85.37,"Cc1cc2nc(C(=O)NCc3ccc(Cl)c(Cl)c3)c(=O)n(C[C@H](O)[C@H](O)[C@H](O)CO)c2cc1C [Example 8, N-(3,4-dichlorobenzyl)-6,7-dimethyl-3-oxo-4-((2S,3S,4R)-2,3,4,5-tetrahydroxypentyl)-3,4-dihydroquinoxaline-2-carboxamide]",,
42.03,"Cc1cc2nc(C(=O)NCc3nc4ccccc4[nH]3)c(=O)n(C[C@H](O)[C@H](O)[C@H](O)CO)c2cc1C [Example 24, N-((1H-benzo[d]imidazol-2-yl)methyl)-6,7-dimethyl-3-oxo-4-((2S,3S,4R)-2,3,4,5-tetrahydroxypentyl)-3,4-dihydroquinoxaline-2-carboxamide]",,
34.05,"Cc1cc2nc(C(=O)NCc3ccc4[nH]cnc4c3)c(=O)n(C[C@H](O)[C@H](O)[C@H](O)CO)c2cc1C [Example 34, N-((1H-benzo[d]imidazol-5-yl)methyl)-6,7-dimethyl-3-oxo-4-((2S,3S,4R)-2,3,4,5-tetrahydroxypentyl)-3,4-dihydroquinoxaline-2-carboxamide]",inhibitory activity similar to TSA or SAHA,
53.58,"Cc1cc2nc(C(=O)NCc3ccc(C(=O)NO)cc3)c(=O)n(C[C@H](O)[C@H](O)[C@H](O)CO)c2cc1C [Example 47, N-(4-(hydroxycarbamoyl)benzyl)-6,7-dimethyl-3-oxo-4-((2S,3S,4R)-2,3,4,5-tetrahydroxypentyl)-3,4-dihydroquinoxaline-2-carboxamide]",,
51.23,"Cc1cc2nc(C(=O)NCc3cccc(C(=O)NO)c3)c(=O)n(C[C@H](O)[C@H](O)[C@H](O)CO)c2cc1C [Example 50, N-(3-(hydroxycarbamoyl)benzyl)-6,7-dimethyl-3-oxo-4-((2S,3S,4R)-2,3,4,5-tetrahydroxypentyl)-3,4-dihydroquinoxaline-2-carboxamide]",,

# Further lines, the compound ahead of its results:
Structure (SMILES),RFU (%) [1] [%],inhibitory activity against HDAC8 [1],other results
"Cc1cc2nc(C(=O)NCCc3ccc(Cl)cc3Cl)c(=O)n(C[C@H](O)[C@H](O)[C@H](O)CO)c2cc1C [Example 9, N-(2,4-dichlorophenethyl)-6,7-dimethyl-3-oxo-4-((2S,3S,4R)-2,3,4,5-tetrahydroxypentyl)-3,4-dihydroquinoxaline-2-carboxamide]",66.28,,
"Cc1cc2nc(C(=O)Nc3cc(-c4ccc(Br)cc4)no3)c(=O)n(C[C@H](O)[C@H](O)[C@H](O)CO)c2cc1C [Example 10, N-(3-(4-bromophenyl)isoxazol-5-yl)-6,7-dimethyl-3-oxo-4-((2S,3S,4R)-2,3,4,5-tetrahydroxypentyl)-3,4-dihydroquinoxaline-2-carboxamide]",16.61,inhibitory activity similar to TSA or SAHA,
"Cc1cc2nc(C(=O)Nc3nnc(-c4ccc(Br)cc4)s3)c(=O)n(C[C@H](O)[C@H](O)[C@H](O)CO)c2cc1C [Example 11, N-(5-(4-bromophenyl)-1,3,4-thiadiazol-2-yl)-6,7-dimethyl-3-oxo-4-((2S,3S,4R)-2,3,4,5-tetrahydroxypentyl)-3,4-dihydroquinoxaline-2-carboxamide]",63.24,,
"Cc1cc2nc(C(=O)Nc3cc(-c4ccc(Br)cc4)n[nH]3)c(=O)n(C[C@H](O)[C@H](O)[C@H](O)CO)c2cc1C [Example 12, N-(3-(4-bromophenyl)-1H-pyrazol-5-yl)-6,7-dimethyl-3-oxo-4-((2S,3S,4R)-2,3,4,5-tetrahydroxypentyl)-3,4-dihydroquinoxaline-2-carboxamide]",58.97,,
"COC(=O)C1CCC(NC(=O)c2nc3cc(C)c(C)cc3n(C[C@H](O)[C@H](O)[C@H](O)CO)c2=O)C1 (stereo partly drawn) [Example 33, methyl 3-(6,7-dimethyl-3-oxo-4-((2S,3S,4R)-2,3,4,5-tetrahydroxypentyl)-3,4-dihydroquinoxaline-2-carboxamido)cyclopentane-1-carboxylate]",69.48,,
"Cc1cc2nc(C(=O)Nc3nc4c(F)cccc4[nH]3)c(=O)n(C[C@H](O)[C@H](O)[C@H](O)CO)c2cc1C [Example 35, N-(4-fluoro-1H-benzo[d]imidazol-2-yl)-6,7-dimethyl-3-oxo-4-((2S,3S,4R)-2,3,4,5-tetrahydroxypentyl)-3,4-dihydroquinoxaline-2-carboxamide]",8.23,inhibitory activity similar to TSA or SAHA,cell viability ([2]; after 24 hours): concentration-dependent inhibition of cancer cell viability; cell viability ([2]; after 48 hours): cell viability was restored; cell viability [3]: concentration-dependent inhibition of cancer cell viability
"Cc1cc2nc(C(=O)Nc3ccc(C(=O)NO)cc3)c(=O)n(C[C@H](O)[C@H](O)[C@H](O)CO)c2cc1C [Example 48, N-(4-(hydroxycarbamoyl)phenyl)-6,7-dimethyl-3-oxo-4-((2S,3S,4R)-2,3,4,5-tetrahydroxypentyl)-3,4-dihydroquinoxaline-2-carboxamide]",10.48,inhibitory activity similar to TSA or SAHA,
"Cc1cc2nc(C(=O)NCc3ccc(CC(=O)NO)cc3)c(=O)n(C[C@H](O)[C@H](O)[C@H](O)CO)c2cc1C [Example 49, N-(4-(2-(hydroxyamino)-2-oxoethyl)benzyl)-6,7-dimethyl-3-oxo-4-((2S,3S,4R)-2,3,4,5-tetrahydroxypentyl)-3,4-dihydroquinoxaline-2-carboxamide]",35.15,inhibitory activity similar to TSA or SAHA,
"Cc1cc2nc(C(=O)Nc3cc(C(=O)NO)ccc3C)c(=O)n(C[C@H](O)[C@H](O)[C@H](O)CO)c2cc1C [Example 51, N-(5-(hydroxycarbamoyl)-2-methylphenyl)-6,7-dimethyl-3-oxo-4-((2S,3S,4R)-2,3,4,5-tetrahydroxypentyl)-3,4-dihydroquinoxaline-2-carboxamide]",5.81,inhibitory activity similar to TSA or SAHA,
"Cc1cc2nc(C(=O)NC3CCC(C(=O)NO)C3)c(=O)n(C[C@H](O)[C@H](O)[C@H](O)CO)c2cc1C (stereo partly drawn) [Example 52, N-(3-(hydroxycarbamoyl)cyclopentyl)-6,7-dimethyl-3-oxo-4-((2S,3S,4R)-2,3,4,5-tetrahydroxypentyl)-3,4-dihydroquinoxaline-2-carboxamide]",41.96,,
"COc1ccc(Cn2ccc3ccc(C(=O)NO)cc32)cc1 [PCI-34051, N-hydroxy-1-(4-methoxybenzyl)-1H-indole-6-carboxamide, reference compound]",1.86,,cell viability [3]: concentration-dependent inhibition of cancer cell viability
"O=C(CCCCCCC(=O)Nc1ccccc1)NO [SAHA, suberoylanilide hydroxamic acid, reference compound]",38.57,,

# From patent publication EP4501917A1, “3,4-DIHYDROQUINOXALINE-2-CARBOXIMIDE DERIVATIVE COMPOUND AND PHARMACEUTICAL COMPOSITION COMPRISING SAME FOR PREVENTING OR TREATING CANCER DISEASE” (Daegu-Gyeongbuk Medical Innovation Foundation, priority 2022, dated 2023)
